The target in this experiment is Genome polyprotein (dengue virus type 2, UniProt P29990). Format: functional, Thailand/16681/1984.

Where “and” joins values, the source holds several entries; their conditions need not be identical. Equal values may be shown once. Some results are limits rather than exact numbers.

The values below come from ChEMBL document CHEMBL5604063, “ASAP - DENV-2 NS2B-NS3 protease fluorescence dose response” (2024).

Genome polyprotein, sequence (P29990 1346-1475 limits assumed): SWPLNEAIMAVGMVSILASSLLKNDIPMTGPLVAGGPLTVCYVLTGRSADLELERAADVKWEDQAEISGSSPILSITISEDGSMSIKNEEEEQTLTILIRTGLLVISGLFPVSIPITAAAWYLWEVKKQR
Genome polyprotein, sequence (P29990 1476-2093 limits assumed): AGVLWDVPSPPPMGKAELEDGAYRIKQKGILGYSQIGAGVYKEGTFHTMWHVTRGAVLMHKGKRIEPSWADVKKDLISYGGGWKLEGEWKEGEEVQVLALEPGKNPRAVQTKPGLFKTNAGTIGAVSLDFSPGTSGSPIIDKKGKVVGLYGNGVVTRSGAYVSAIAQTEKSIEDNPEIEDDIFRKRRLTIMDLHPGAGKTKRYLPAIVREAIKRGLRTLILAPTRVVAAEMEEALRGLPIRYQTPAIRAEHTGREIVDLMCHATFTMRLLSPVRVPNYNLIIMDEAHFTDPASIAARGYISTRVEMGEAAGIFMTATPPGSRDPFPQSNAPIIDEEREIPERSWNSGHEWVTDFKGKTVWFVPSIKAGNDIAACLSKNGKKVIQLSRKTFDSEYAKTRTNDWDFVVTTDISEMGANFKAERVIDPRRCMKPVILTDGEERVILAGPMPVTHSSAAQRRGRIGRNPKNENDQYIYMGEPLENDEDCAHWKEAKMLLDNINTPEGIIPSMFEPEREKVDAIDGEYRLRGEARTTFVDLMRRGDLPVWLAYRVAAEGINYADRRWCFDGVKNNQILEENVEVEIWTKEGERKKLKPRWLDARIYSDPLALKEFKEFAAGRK

Usually IC50 stands for the point on the concentration scale where inhibition reaches its midpoint. Lower therefore signals greater potency in that assay. `CCn1c(=O)c(N2CCCC[C@H](N3CCCC3)C2)nc2ccccc21`: the IC50 is more than 99.5 µM.
As to `CCn1cc(-c2ccnc(N(C)C)c2)nc(N2CC[C@@H](CO)C2)c1=O`, the IC50 was more than 99.5 µM.
Turning to `N#Cc1ccccc1-c1ccc([C@H](NC(=O)OCc2ccccc2)C(=O)Nc2cccc(CN)c2)cc1`, the IC50 came out at 18.6 µM.
`COc1ncccc1-c1ccc([C@@H](NC(=O)OCc2ccccc2)C(=O)Nc2cccc(CN)c2)cc1` registered a half-maximal inhibitory concentration (IC50) of 23 µM.
With `CCNC(=O)[C@@H](NC(=O)OCc1ccccc1)c1ccc(OCc2ccccc2)cc1`, the IC50 is more than 99.5 µM.
Turning to `CCn1c(=O)c(N2C[C@H]3C[C@@H](O)CC[C@H]3C2)nc2ccccc21`, the IC50 is more than 99.5 µM.
`CCn1cc(-c2ccc(OC)c(C)c2)nc(N2CC[C@@H](CO)C2)c1=O` gave an IC50 of more than 99.5 µM.
The compound `NCc1cccc(NC(=O)[C@@H](NC(=O)OCc2ccccc2)c2ccc(-c3ccc4scnc4c3)cc2)c1` had an IC50 of 42.9 µM.
`Cn1cc(Nc2ccc(S(=O)(=O)Nc3ccc(Cl)cc3C(=O)O)cn2)cn1` returned an IC50 of more than 99.5 µM.
`NCc1cccc(NC(=O)[C@@H](NC(=O)OCc2ccccc2)c2ccc(-c3ccnc(N)c3)cc2)c1` gave an IC50 of more than 99.5 µM.
To `CCOc1ccc(F)cc1-c1cn(CC)c(=O)c(N2CC[C@@H](CO)C2)n1` belongs more than 99.5 µM.
As for `O=C(NS(=O)(=O)C1CC1)c1cc(Cl)ccc1NS(=O)(=O)c1ccc(Oc2ccccc2Cl)cc1`, the IC50 stood at 7.33 µM.
For the compound `CCc1ccc(-c2ccc([C@@H](NC(=O)OCc3ccccc3)C(=O)Nc3cccc(CN)c3)cc2)cc1`, the midpoint of inhibition, the IC50, lay at 6.61 µM.
The same measure for `CCn1cc(-c2cncc(OC)c2)nc(N2CC[C@@H](CO)C2)c1=O`: more than 99.5 µM.
Take `CN1Cc2ccc(CNC(=O)[C@@H](NC(=O)OCc3ccccc3)c3ccc(OCc4ccccc4)cc3)cc2C1`: the IC50 was more than 99.5 µM.
With `CC[C@H]1CN2CCC[C@H]2CN1c1nc2ccccc2n(CC)c1=O`, the IC50 is more than 99.5 µM.
The compound `CCn1c(=O)c(N2C[C@@H]3CN(C4CCC4)C[C@@H]3C2)nc2ccccc21` displayed an IC50 of more than 99.5 µM.
On to `CCn1c(=O)c(N2CC3(CCC3)C[C@@H]2C)nc2ccccc21`, for which the IC50 is more than 99.5 µM.
With `CCn1cc(-c2cccc(CN(C)C)c2)nc(N2CC[C@@H](CO)C2)c1=O`, the IC50 was more than 99.5 µM.
In the case of `CC(C)c1cc(-c2ccc([C@@H](NC(=O)OCc3ccccc3)C(=O)Nc3cccc(CN)c3)cc2)on1`, the IC50 was more than 99.5 µM.
With `CCn1cc(-c2ccccc2C(C)C)nc(N2CC[C@@H](CO)C2)c1=O`, the IC50 is more than 99.5 µM.
Regarding `NCc1cccc(NC(=O)[C@@H](NC(=O)OCc2ccccc2)c2ccc(-c3ccnc4[nH]ccc34)cc2)c1`, the IC50 is more than 99.5 µM.
As for `CCn1cc(-c2ccc3c(c2)CCNC3)nc(N2CC[C@@H](CO)C2)c1=O`, the IC50 is more than 99.5 µM.
`CCn1cc(-c2ccccc2N)nc(N2CC[C@@H](CO)C2)c1=O`: the IC50 is more than 99.5 µM.
The same measure for `CCn1c(=O)c(N2C[C@@H]3CS(=O)(=O)C[C@@H]3C2)nc2ccccc21`: more than 99.5 µM.
The same measure for `CCn1cc(-c2ccc3ocnc3c2)nc(N2CC[C@@H](CO)C2)c1=O`: more than 99.5 µM.
`CCn1c(=O)c(N2CC[C@@H](CN3CCCCC3)C2)nc2ccccc21` showed an IC50 of more than 99.5 µM.
Compound `CCn1cc(-c2cccc(-n3cccn3)c2)nc(N2CC[C@@H](CO)C2)c1=O` came in with an IC50 of more than 99.5 µM.
`Cc1noc(C)c1-c1ccc([C@@H](NC(=O)OCc2ccccc2)C(=O)Nc2cccc(CN)c2)cc1` returned an IC50 of more than 99.5 µM.
Regarding `CCn1cc(-c2cccc(OC)c2F)nc(N2CC[C@@H](CO)C2)c1=O`, the IC50 was more than 99.5 µM.
`O=C(O)c1cc(Cl)ccc1NS(=O)(=O)c1ccc(N[C@H]2CCCOC2)nc1` showed an IC50 of more than 99.5 µM.
The same measure for `CCn1cc(-c2cn(C)nc2C)nc(N2CC[C@@H](CO)C2)c1=O`: more than 99.5 µM.
To `CCn1c(=O)c(N2CCC[C@H]2c2noc(C)n2)nc2ccccc21` belongs more than 99.5 µM; to `Cc1nc(-c2ccc([C@@H](NC(=O)OCc3ccccc3)C(=O)Nc3cccc(CN)c3)cc2)cs1`, more than 99.5 µM.
The same measure for `NCc1cccc(NC(=O)[C@@H](NC(=O)OCc2ccccc2)c2ccc(C3=CCCOC3)cc2)c1`: more than 99.5 µM.
In turn, `CN1CC[C@H](C2CCN(S(=O)(=O)c3cc(F)cc(C(=O)O)c3)CC2)C1` had an IC50 of more than 99.5 µM.
Consider `CCn1cc(C(=O)O)nc(N2CC[C@@H](CO)C2)c1=O`, for which the IC50 is more than 99.5 µM.
Consider `COc1cccc(-c2ccc([C@@H](NC(=O)OCc3ccccc3)C(=O)Nc3cccc(CN)c3)cc2)c1`, for which the IC50 is 9.12 µM and 6.13 µM and 6.64 µM.
To `Cc1cccc(-c2ccc([C@@H](NC(=O)OCc3ccccc3)C(=O)Nc3cccc(CN)c3)cc2)c1` belongs 9.31 µM; to `CCn1c(=O)c(N2CCC[C@H]2c2cncc(Br)c2)nc2ccccc21`, more than 99.5 µM.
Take `O=C(N[C@@H](C(=O)NCc1c[nH]cn1)c1ccc(OCc2ccccc2)cc1)OCc1ccccc1`: the IC50 is more than 99.5 µM.
The same measure for `Cc1ccc(COc2ccc(S(=O)(=O)Nc3ccc(Cl)cc3C(=O)O)cc2)cc1`: 9.45 µM.
`O=C(N[C@@H](C(=O)NC1CCCCC1)c1ccc(OCc2ccccc2)cc1)OCc1ccccc1` displayed an IC50 of more than 99.5 µM.
Turning to `NCc1cccc(NC(=O)[C@@H](NC(=O)OCc2ccccc2)c2ccc(-c3ccc4cn[nH]c4c3)cc2)c1`, the IC50 is 6.06 µM and 6 µM and 5.75 µM.
For `CCn1c(=O)c(N2CC(S(=O)(=O)N3CCCC3)C2)nc2ccccc21`, the IC50 was more than 99.5 µM.
Take `NCc1cccc(NC(=O)[C@@H](NC(=O)OCc2ccccc2)c2ccc(-c3cccc4nonc34)cc2)c1`: the IC50 was 11.6 µM and 5.73 µM.
To `CS(=O)(=O)NC(=O)c1cc(Cl)ccc1NS(=O)(=O)c1ccc(Oc2ccccc2Cl)cc1` belongs 12.2 µM.
Turning to `O=C(N[C@@H](C(=O)NCc1ccncc1)c1ccc(OCc2ccccc2)cc1)OCc1ccccc1`, the IC50 is more than 99.5 µM.
On to `CCn1c(=O)c(N2CC[C@@H](Cc3ccncc3)C2)nc2ccccc21`, for which the IC50 is more than 99.5 µM.
To `CCc1ccccc1-c1ccc([C@@H](NC(=O)OCc2ccccc2)C(=O)Nc2cccc(CN)c2)cc1` belongs 9.17 µM.
On to `CCn1cc(C2=CCCNC2)nc(N2CC[C@@H](CO)C2)c1=O`, for which the IC50 was more than 99.5 µM.
Turning to `CCn1cc(-c2ccc3nn(C)cc3c2)nc(N2CC[C@@H](CO)C2)c1=O`, the IC50 was more than 99.5 µM.
The compound `CCn1c(=O)c(N2CC3(CCCCC3)C[C@H]2CO)nc2ccccc21` gave an IC50 of more than 99.5 µM.
`NCc1cccc(NC(=O)[C@@H](NC(=O)OCc2ccccc2)c2ccc(-c3ccc(N)nc3)cc2)c1`: the IC50 was more than 99.5 µM.
With `Cn1cc(-c2ccc([C@@H](NC(=O)OCc3ccccc3)C(=O)Nc3cccc(CN)c3)cc2)cn1`, the IC50 is more than 99.5 µM.
For the compound `CCn1cc(-c2c[nH]c3ncccc23)nc(N2CC[C@@H](CO)C2)c1=O`, the IC50 was more than 99.5 µM.
`CCn1cc(-c2ccc(C(F)F)nc2)nc(N2CC[C@@H](CO)C2)c1=O` yielded an IC50 of more than 99.5 µM.
In the case of `CCn1c(=O)c(N2C[C@H]3CN(C)CC[C@H]3C2)nc2ccccc21`, the half-maximal inhibitory concentration (IC50) is more than 99.5 µM.
`COc1ccc(COc2ccc(S(=O)(=O)Nc3ccc(Cl)cc3C(=O)O)cc2)nc1`: the IC50 is 74.1 µM.
To `NCc1cccc(NC(=O)[C@@H](NC(=O)OCc2ccccc2)c2ccc(-c3cncnc3)cc2)c1` belongs more than 99.5 µM; to `CC(C)(C)c1ncc(-c2ccc([C@@H](NC(=O)OCc3ccccc3)C(=O)Nc3cccc(CN)c3)cc2)o1`, more than 99.5 µM; to `CCn1c(=O)c(N2CC[C@]3(CCCN(C)C3)C2)nc2ccccc21`, more than 99.5 µM.
In turn, `CCn1c(=O)c(N2C[C@H]3OCCN(C(C)=O)[C@H]3C2)nc2ccccc21` returned an IC50 of more than 99.5 µM.
`NCc1cccc(NC(=O)[C@@H](NC(=O)OCc2ccccc2)c2cccc(OCc3cncnc3)c2)c1` returned an IC50 of more than 99.5 µM.
`O=C(N[C@@H](C(=O)Nc1cccnc1)c1ccc(OCc2ccccc2)cc1)OCc1ccccc1` registered an IC50 of more than 99.5 µM.
In the case of `CCn1cc(-c2cnc3ccnn3c2)nc(N2CC[C@@H](CO)C2)c1=O`, the concentration for half-maximal inhibition (IC50) was more than 99.5 µM.
As for `CCn1cc(-c2ccc(S(C)(=O)=O)cc2)nc(N2CC[C@@H](CO)C2)c1=O`, the IC50 was more than 99.5 µM.
Regarding `CNc1nc2cc(-c3ccc4c(c3)C[C@H](N)C4)ccc2o1`, the IC50 is more than 99.5 µM.
Turning to `Cc1ccc(F)c(-c2ccc([C@@H](NC(=O)OCc3ccccc3)C(=O)Nc3cccc(CN)c3)cc2)c1`, half-maximal inhibition (IC50) was put at 9.46 µM.
`NCc1cccc(NC(=O)[C@@H](NC(=O)OCc2ccccc2)c2ccc(-c3ccncc3F)cc2)c1` returned an IC50 of more than 99.5 µM.
As to `NCc1cccc(NC(=O)[C@@H](NC(=O)OCc2ccccc2)c2ccc(-c3cccnc3F)cc2)c1`, the IC50 was determined as 71.4 µM.
The compound `NCc1cccc(NC(=O)[C@@H](NC(=O)OCc2ccccc2)c2ccc(-c3cc4cccnc4s3)cc2)c1` yielded an IC50 of 6.07 µM.
The compound `COc1ccccc1-c1ccc([C@@H](NC(=O)OCc2ccccc2)C(=O)Nc2cccc(CN)c2)cc1` returned a 50% inhibitory concentration (IC50) of more than 99.5 µM.
Compound `CCn1cc(-c2ccc(CN(C)C)cc2)nc(N2CC[C@@H](CO)C2)c1=O` returned an IC50 of more than 99.5 µM.
In the case of `CCn1nccc1-c1cn(CC)c(=O)c(N2CC[C@@H](CO)C2)n1`, the IC50 is more than 99.5 µM.
As for `CCn1cc(-c2ccc([C@@H](NC(=O)OCc3ccccc3)C(=O)Nc3cccc(CN)c3)cc2)cn1`, the IC50 is more than 99.5 µM.
`Cc1n[nH]cc1-c1ccc([C@@H](NC(=O)OCc2ccccc2)C(=O)Nc2cccc(CN)c2)cc1` came in with an IC50 of more than 99.5 µM.
The compound `Cn1cc(-c2ccc([C@@H](NC(=O)OCc3ccccc3)C(=O)Nc3cccc(CN)c3)cc2)ccc1=O` displayed an IC50 of more than 99.5 µM.
In turn, `CCn1c(=O)c(N2CCC[C@H]2CN2CCCC2)nc2ccccc21` showed an IC50 of more than 99.5 µM.
With `CCn1cc(-c2cccc(-c3ccccc3)c2)nc(N2CC[C@@H](CO)C2)c1=O`, the IC50 is more than 99.5 µM.
`O=C(N[C@@H](C(=O)NCc1ccccn1)c1ccc(OCc2ccccc2)cc1)OCc1ccccc1` showed an IC50 of more than 99.5 µM.
`CCn1cc(-c2cn(C)nc2C(F)(F)F)nc(N2CC[C@@H](CO)C2)c1=O` registered an IC50 of more than 99.5 µM.
Consider `CCn1c(=O)c(N2CC[C@H](N3CCN(C)CC3)C2)nc2ccccc21`, for which the IC50 is more than 99.5 µM.
To `CCn1cc(-c2ccncc2F)nc(N2CC[C@@H](CO)C2)c1=O` belongs more than 99.5 µM; to `CCn1c(=O)c(N2CCC[C@H]2c2ncccn2)nc2ccccc21`, more than 99.5 µM; to `CCn1cc(-c2ccccc2C(=O)OC)nc(N2CC[C@@H](CO)C2)c1=O`, more than 99.5 µM.
